Measured values reported in patent publication US10239880B2, “Cyclopenta[d]pyrimidines and substituted cyclopenta[d]pyrimidines as antitubulin and microtubule targeting agents, monocyclic pyrimidines as tubulin inhibitors, and pyrrolopyrimidines as targeted antifolates and tubulin and multiple receptor tyrosine kinase inhibition and antitumor agents” (Duquesne University of the Holy Spirit, priority 2015, dated 2019).
Entries after “also recorded” stand apart in the source; their conditions may differ. Read-outs that look alike come from different tables or passages of the source.

Assays:
A-10 cells = assay: Microtubule depolymerization, cell-based phenotypic assay in A-10 cells
PDGFR-β = PDGFR-β (Homo sapiens, UniProt P09619); assay: Kinase inhibition, whole-cell assay, PDGFR-β; type: cell-based; conditions: Table 1; IC50 ± SD; read-out: Kinase inhibition IC50 [whole-cell assays] PDGFR-β
MDA-MB-435 cancer cells = assay: Antiproliferative effect in MDA-MB-435 cancer cells (SRB assay); type: cell-based; conditions: Table 2, read-out: MDA-MB-435 IC50
[1] = test system: NCI/ADR resistant tumor model; assay: NCI/ADR-RES xenograft trial (resistant tumor model); type: in vivo, mice; conditions: day 11, AG165 75 mg/kg
From the text: AG165 in MDA-MB-435 xenograph model:

MDA-MB-231 xenograft = MDA-MB-231 xenograft trial
MDA-MB-435 xenograft = MDA-MB-435 xenograft trial; conditions: for adverse effects / toxicity in xenograft trial: cumulative dosing; for antitumor effects: MDA-MB-435 xenograft
EGFR = EGFR (Homo sapiens, UniProt P00533); assay: Kinase inhibition, whole-cell assay, EGFR; type: cell-based; conditions: Table 1; IC50 ± SD; read-out: Kinase inhibition IC50 [whole-cell assays] EGFR
[2] = test system: Pgp expressing SK-OV-3 MDR1-6-6; assay: Antiproliferative activity, Pgp expressing SK-OV-3 MDR1-6-6; type: cell-based; conditions: Homo sapiens
[3] = test system: tubulin (colchicine site); assay: Inhibition of [3H]colchicine binding to tubulin (Section III); conditions: 5 μM; Section III compounds
Parental SK-OV-3 = assay: Antiproliferative activity, parental SK-OV-3; type: cell-based; conditions: Homo sapiens, Table 6, read-out: IC50 ± SD Parental SK-OV-3
purified tubulin = assay: Inhibition of tubulin assembly (Section II); type: biochemical; conditions: Table 5; Section II compounds; read-out: Inhibition of tubulin assembly IC50 ± SD
Experimental: The effects of 3, 4, 6, 7 and 9 on the polymerization of purified tubulin were evaluated (Table 5). This allows a study of the direct interaction of these compounds with their intracellular target. The ability of these compounds to bind to the colchicine site on tubulin was evaluated by measuring inhibition of [^3H]colchicine binding to tubulin.

Parental OVCAR-8 = assay: Antiproliferative effect, parental OVCAR-8 (SRB assay); type: cell-based; conditions: Homo sapiens, Table 10, n = 3, read-out: IC50 ± SD Parental OVCAR-8
Parental HeLa = assay: Antiproliferative activity, parental HeLa; type: cell-based; conditions: Homo sapiens, Table 7, read-out: IC50 ± SD Parental HeLa
From the text: (§1) Another clinically relevant drug resistance mechanism of tubulin-targeting agents is the overexpression of the βIII isotype of tubulin.

[4] = test system: P-gp Overexpressing NCI/ADR-RES; assay: Antiproliferative effect, P-gp overexpressing NCI/ADR-RES (SRB assay); conditions: Homo sapiens, read-out: IC50 ± SD P-gp Overexpressing NCI/ADR-RES
[5] = test system: β-III overexpressing HeLa; assay: Antiproliferative activity, β-III overexpressing HeLa; type: cell-based; conditions: Homo sapiens, HeLa; Table 7; read-out: IC50 ± SD β-III overexpressing HeLa
From the text: as §1

[6] = Metabolite identification of 3 with human liver microsomes by LC/MS/MS; type: in vitro ADME
From the text: Compound 3 (Table 4), the para-methylthiophenyl substituted cyclopenta[d]pyrimidne, was designed to decrease the possible demethylation. […] Thus, the methylsulfinyl analog 4 (Table 4) and the methylsulfonyl analog 5 (Table 4) were also synthesized to determine their antiproliferative potencies. […] The electron donating, para-methylamino moiety of 8 (Table 1) and the para-dimethylamino moiety of 9 (Table 4) were designed as isosteric replacements of the O-methoxy moiety. According to the literature,^7 8 should be the major metabolite of 9. […] Compound 13 (Table 4), replaced the phenyl ring with a cyclohexyl ring to determine the importance of π-stacking interaction of the aniline ring. The variations proposed of compounds 10-13 would also serve as structural means to decrease the O-demethylation. […] Similarly, 9 could also function as a potential long acting agent, since the metabolites of both 3 and 9 are anticipated to be potent compounds against tumor cells. Section II Compounds Chemistry:
FIG. 7a) HPLC spectra of 3 incubated with human liver microsomes at 0 and 60 min. Metabolites M1-M5 and parent 3 were illustrated on the spectra. FIG. 7b) MS and MS/MS spectrum of 3. FIG. 7c) MS and MS/MS spectrum of M1 (compound 5). FIG. 7d) MS and MS/MS spectrum of M2 (compound 4). FIG. 7e) Fragmentation of M1 and M2 (MS/MS 239.1340).

[7] = IP 75 mg/kg, listed as AG 165, 75 mg/kg

EGFR, sequence (P00533 25-1210, species assumed): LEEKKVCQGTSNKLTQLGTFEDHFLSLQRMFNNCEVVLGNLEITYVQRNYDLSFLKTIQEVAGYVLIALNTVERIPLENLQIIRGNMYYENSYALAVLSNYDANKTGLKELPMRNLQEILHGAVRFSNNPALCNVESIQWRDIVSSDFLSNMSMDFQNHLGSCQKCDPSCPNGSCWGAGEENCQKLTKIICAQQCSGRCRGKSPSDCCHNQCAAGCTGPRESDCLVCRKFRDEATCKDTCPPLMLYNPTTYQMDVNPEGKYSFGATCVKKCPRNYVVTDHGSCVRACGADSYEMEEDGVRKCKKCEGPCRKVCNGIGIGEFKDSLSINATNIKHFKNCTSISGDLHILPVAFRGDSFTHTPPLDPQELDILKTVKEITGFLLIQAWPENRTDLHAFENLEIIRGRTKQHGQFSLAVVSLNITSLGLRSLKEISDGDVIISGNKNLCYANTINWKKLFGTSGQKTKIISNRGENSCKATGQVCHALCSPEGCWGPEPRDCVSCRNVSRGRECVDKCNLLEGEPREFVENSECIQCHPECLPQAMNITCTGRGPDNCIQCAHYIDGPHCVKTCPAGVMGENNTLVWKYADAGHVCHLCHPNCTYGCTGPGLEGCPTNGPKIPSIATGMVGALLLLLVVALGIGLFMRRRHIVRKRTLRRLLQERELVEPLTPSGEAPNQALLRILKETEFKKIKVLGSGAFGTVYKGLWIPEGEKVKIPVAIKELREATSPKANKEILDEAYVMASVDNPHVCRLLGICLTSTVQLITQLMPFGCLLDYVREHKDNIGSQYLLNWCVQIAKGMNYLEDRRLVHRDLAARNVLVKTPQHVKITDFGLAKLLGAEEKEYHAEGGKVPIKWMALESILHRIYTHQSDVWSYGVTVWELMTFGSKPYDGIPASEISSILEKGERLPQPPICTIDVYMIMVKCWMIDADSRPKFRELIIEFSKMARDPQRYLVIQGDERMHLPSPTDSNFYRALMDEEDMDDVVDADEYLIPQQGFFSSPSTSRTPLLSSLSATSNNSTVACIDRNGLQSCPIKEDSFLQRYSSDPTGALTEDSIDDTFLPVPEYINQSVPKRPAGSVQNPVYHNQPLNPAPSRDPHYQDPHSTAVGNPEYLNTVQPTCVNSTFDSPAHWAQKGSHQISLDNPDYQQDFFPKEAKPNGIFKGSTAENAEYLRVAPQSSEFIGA
PDGFR-β, sequence (P09619 33-1106, species assumed): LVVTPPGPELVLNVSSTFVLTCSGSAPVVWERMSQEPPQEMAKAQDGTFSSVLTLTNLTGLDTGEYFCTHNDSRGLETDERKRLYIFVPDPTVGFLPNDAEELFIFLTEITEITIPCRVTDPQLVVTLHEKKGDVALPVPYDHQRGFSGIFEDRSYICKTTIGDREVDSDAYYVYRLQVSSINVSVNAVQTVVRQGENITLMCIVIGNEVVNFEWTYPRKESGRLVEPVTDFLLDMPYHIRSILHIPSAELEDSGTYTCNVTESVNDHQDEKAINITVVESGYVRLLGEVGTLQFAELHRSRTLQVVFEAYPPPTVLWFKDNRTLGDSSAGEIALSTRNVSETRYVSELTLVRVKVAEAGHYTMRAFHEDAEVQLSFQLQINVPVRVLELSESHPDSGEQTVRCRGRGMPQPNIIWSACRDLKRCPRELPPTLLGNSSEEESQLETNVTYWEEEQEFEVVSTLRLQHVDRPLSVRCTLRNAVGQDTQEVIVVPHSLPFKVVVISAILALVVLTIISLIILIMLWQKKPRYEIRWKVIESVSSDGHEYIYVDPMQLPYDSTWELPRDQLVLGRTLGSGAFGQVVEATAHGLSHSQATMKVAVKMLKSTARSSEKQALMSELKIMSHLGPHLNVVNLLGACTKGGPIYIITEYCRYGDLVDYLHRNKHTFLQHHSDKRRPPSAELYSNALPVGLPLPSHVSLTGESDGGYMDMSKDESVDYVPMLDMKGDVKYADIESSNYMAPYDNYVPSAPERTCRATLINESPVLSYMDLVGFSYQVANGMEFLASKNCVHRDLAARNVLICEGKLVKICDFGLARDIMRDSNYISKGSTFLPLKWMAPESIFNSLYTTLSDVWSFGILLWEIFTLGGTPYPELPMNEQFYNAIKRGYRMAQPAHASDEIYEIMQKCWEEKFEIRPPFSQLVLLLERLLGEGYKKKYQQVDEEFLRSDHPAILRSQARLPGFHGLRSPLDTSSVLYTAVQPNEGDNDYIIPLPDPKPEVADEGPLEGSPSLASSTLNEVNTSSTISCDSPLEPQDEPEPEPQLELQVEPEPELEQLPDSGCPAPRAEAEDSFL

Which results are given for `CCCn1ccc2nc(C)nc(N(C)c3ccc(OC)cc3)c21.Cl` [3•HCl]?
EC50 (A-10 cells; Table 2, read-out: Microtubule depolymerization EC50): 20 nM; IC50 (PDGFR-β): > 200 nM; IC50 (MDA-MB-435 cancer cells): 8.8 ± 3.4 nM; tumor volume vs control treated mice ([1]; p=0.0003): significantly smaller; tumor volume vs PTX (10 mg/kg) treated mice ([1]; p=0.0333): significantly smaller; antitumor effects (MDA-MB-231 xenograft; MDA-MB-231 xenograft, 3.HCl 75 mg/kg IP, paclitaxel 10 mg/kg IP): statistically significant antitumor effects comparable to paclitaxel; tumors vs control (MDA-MB-231 xenograft; days 10 and 15, 75 mg/kg, p<0.01 and p<0.0001): significantly smaller; IC50 (A431): 107 ± 18 nM; final average tumor mass compared to the vehicle (MDA-MB-435 xenograft; Day 15, IP 75 mg/kg): statistically significant (p<0.001) lower final average tumor mass; mouse weight change (MDA-MB-435 xenograft; IP 75 mg/kg, compared to the vehicle): recoverable weight loss; adverse effects / toxicity in xenograft trial (MDA-MB-435 xenograft; IP 75 mg/kg, 75 mg/kg): did not induce any noticeable adverse effects or toxicities; also recorded: no apparent toxicity; adverse effects / toxicity in xenograft trial (MDA-MB-435 xenograft; [7]): no evidence of effects on either central or peripheral nervous system; tumor growth during the trial (MDA-MB-435 xenograft; IP 75 mg/kg, nude mice): inhibited tumor growth; antitumor effects (MDA-MB-435 xenograft; IP 75 mg/kg, 75 mg/kg): statistically significant antitumor effects (p<0.001); antitumor effects (MDA-MB-435 xenograft; [7]): highly statistically significant (p<0.001) antitumor effects; tumors vs control (MDA-MB-435 xenograft; days 9, 11 and 15, 75 mg/kg, p<0.01 days 9 and 11, p<0.0001 day 15): significantly smaller; IC50 (EGFR): 89.3 ± 9.2 nM

With `COc1ccc(/C=C\c2cc(OC)c(OC)c(OC)c2)cc1O` [CA-4, combretastatin A-4] as the molecule, how does the IC50 ([2]; SK-OV-3, read-out: IC50 ± SD Pgp expressing SK-OV-3 MDR1-6-6) read?
The IC50 was 6.6 ± 1.3 nM.

What about the EC50 (A-10 cells; Rattus norvegicus, A10, Table 2, read-out: Microtubule depolymerization EC50) of the same molecule?
The EC50 was 13.1 nM.

What about the IC50 (MDA-MB-435 cancer cells; Homo sapiens, MDA-MB-435) of the same molecule?
Its IC50 is 3.47 ± 0.6 nM.

What about the “Inhibition of colchicine binding (% inhibition ± SD)” value [3] of the same molecule?
Its value is 97%.

What about the IC50 (Parental OVCAR-8) of the same molecule?
The IC50 was 6 ± 0.7 nM.

What about the IC50 (Parental HeLa) of the same molecule?
The IC50 was 4.7 ± 0.2 nM.

What about the IC50 [4] of the same molecule?
The IC50 was 9 ± 2 nM.

With `CSc1ccc(N(C)c2nc(C)nc3c2CCC3)cc1` [Compound 3] as the molecule, how does the IC50 ([2]; SK-OV-3, Table 6, read-out: IC50 ± SD Pgp expressing SK-OV-3 MDR1-6-6) read?
The IC50 was 9.28 ± 0.42 nM.

What about the EC50 (A-10 cells; Rattus norvegicus, A10, read-out: EC50 in A-10 cells (Concentration that causes 50% tubulin loss in A-10 cells), Table 4, Section II compounds) of the same molecule?
The EC50 was 12.6 nM.

What about the IC50 [5] of the same molecule?
Its IC50 is 5.26 ± 0.78 nM.

And the IC50 (Parental SK-OV-3)?
Its IC50 is 7.2 ± 0.6 nM.

What about the IC50 (Parental OVCAR-8) of the same molecule?
Its IC50 is 500 ± 100 nM.

And the IC50 (Parental HeLa)?
Its IC50 is 6.95 ± 0.53 nM.

What about the IC50 [4] of the same molecule?
Its IC50 is 210 ± 10 nM.

Which “MS Peak Area in 60 min sample, HPLC area” value [6] does the source give for `Cc1nc2c(c(N(C)c3ccc([S+](C)[O-])cc3)n1)CCC2` (centres unmarked) [Section II compound 4] here?
The value was 2,199,500.

For `Cc1nc2c(c(N(C)c3ccc(S(C)(=O)=O)cc3)n1)CCC2` [Section II compound 5], which “MS Peak Area in 60 min sample, HPLC area” value ([6]; Section II compound 3 incubated with human liver microsomes, 60 min) is on record?
Its value is 98,900.

And the “MS Peak Area in 60 min sample, Percentage (%)” value ([6]; Section II compound 3 incubated with human liver microsomes, 60 min, parent and metabolites)?
The value was 2.2%.

Which results are given for `CC(=O)O[C@H]1C(=O)[C@@]2(C)[C@H]([C@H](OC(=O)c3ccccc3)[C@]3(O)C[C@H](OC(=O)[C@H](O)[C@@H](NC(=O)c4ccccc4)c4ccccc4)C(C)=C1C3(C)C)[C@]1(OC(C)=O)CO[C@@H]1C[C@@H]2O` [paclitaxel]?
IC50 (Parental OVCAR-8): 10 nM; IC50 [4]: 5000 nM
